According to patent US20230390371A1, “ANTI-TUMOR IMMUNITY INDUCES THE PRESENTATION OF ABERRANT PEPTIDES” (STICHTING HET NEDERLANDS KANKER INSTITUUT-ANTONI VAN …, priority 2020, published 2023):
“Also recorded” adds a separate entry of the source. Where a SMILES comes first, the peptide text is derived from it. The star is where a group is joined. Cbz = O=C(OCc1ccccc1)*

Legend:
Type in all cases: cell-based, human
[1] = system: peripheral blood mononuclear cells from healthy donors; experiment: Immunogenicity in peripheral blood mononuclear cells from healthy donors
12T cells = experiment: Ribosome profiling with diricore / bump analysis; conditions: IFNγ+IDOi
Excerpt: Preprocessing of FASTQ files consisted of adapter removal using cutadapt (available at doi.org/10.14806/ej.17.1.200) with the parameters (--quality-base=33-O7-e 0.15-m 20-q 5) and removal of rRNA and tRNA contaminants by means of alignment against a reference (rRNA reference data from GENCODE^61 v19: rRNA, MT_RNA, rRNA_pseudogene, and tRNA reference data from GtRNAdb) using bowtie2^62 with parameters (--seed 42−p1—local).
The actual alignment of pre-processed FASTQ files was done with TopHat2^63 and Bowtie2^62 against GRCh37/ hg19 and GENCODE v19/BASIC transcript with Ensembl coordinates using parameters (seed 42-n 2-m 1 --no-novel-juncs --no-novel-indels --no-coverage-search --segment-length 25). In a subsequent step the primary aligned reads filtered for a minimum mapping quality of 10. […]
The reads (FASTQ) from Riboseq experiments were aligned to human transcript assembly (gencode v19) after removal of low quality reads and the reads that align to tRNA and rRNA (refer methods section—Diricore). […]
BAM files were converted to BED using BEDTOOLS 68 and later file formats were edited using PERL scripts. Each gene was divided into 100 windows of equal length, and read (separately for every sample) at each window were quantified using BEDTOOLS. The array of reads, logged (base 2), were normalized between 0 to 1. […]

MD55A3 melanoma cells = experiment: V5-ATF4(1-63)-His frameshift reporter, His-tag pulldown and V5-tag immunoblotting; conditions: IFNγ+IDOi, MD55A3 reporter cells
Excerpt: FIG. 3: W-Bumps are associated with disordered out-of-frame peptides, and shortage in tryptophan leads to frameshifting events. • (a) Bar-plots depicting total occurrences of alpha-helices, beta-sheets and turns for tryptophan-containing peptide sequences corresponding to W-Bumps (left) and all remaining peptide sequences (middle), and the difference in percentages (right). […] Tryptophan shortage, on the other hand, can lead to stalling on the tryptophan codon (bottom left panel), or could in theory induce frameshifting events, leading to aberrant peptide production (lower right panel). Since secondary structure of growing polypeptide chains is attained in the lower tunnel of the ribosome, the loss of an a-helical secondary structure in this tunnel could hamper ribosomal progression. (c) Line-plots depicting the probability of disorderedness of peptide sequences. The position of the tryptophan is indicated by the dashed line. […] The green line represents the average probability of disorderedness of all peptides (‘All tryptophan codons’, n=36508). A group of outlier candidates that show relatively ordered out-of-frame peptide sequences were selected for comparisons (‘Selected tryptophan codons’, n=94, red). (d) Line-plots depicting mean frequency of RPFs at single nucleotide resolution across all tryptophans (green) and the selected outlier set (red) from panel 3c. […]

MD55A3 cells = experiment: Proteomic analysis of tryptophan-containing proteins with IFNγ and proteasome inhibition; conditions: combined treatment with IFNγ and MG132
Description: Frozen MD55A3 cell pellets were lysed, reduced and alkylated in heated guanidine (GuHCl) lysis buffer as described by Jersie-Christensen et al.^70. Proteins were digested with Lys-C (Wako) for 2 h at 37° C., enzyme/substrate ratio 1:100. The mixture was then diluted to 2 M GuHCl and digested overnight at 37° C. with trypsin (Sigma) in enzyme/substrate ratio 1:50. Digestion was quenched by the addition of TFA (final concentration 1%), after which the peptides were desalted on a Sep-Pak C18 cartridge (Waters, Massachusetts, USA). Samples were vacuum dried and stored at −80° C. until LC-MS/MS analysis.
Peptides were reconstituted in 2% formic acid and analyzed by nano LC-MS/MS on an Q Exactive HF-X Hybrid Quadrupole-Orbitrap Mass Spectrometer equipped with an EASY-NLC 1200 system (Thermo Scientific). […]
RAW files were analyzed by Proteome Discoverer (version 2.3.0.523, Thermo Scientific) using standard settings. […] Differentially expressed proteins were determined using a t-test (threshold: FDR 1% or FDR 5% and S0: 0.13). […]
To look at the downstream consequences of W-Bump formation, we assessed the impact of W-Bumps on protein expression by proteomic analysis following IFNγ induction. We first analyzed the differential protein expression in IFNγ-treated versus control cells (data not shown) and grouped proteins according to the number of tryptophan residues they contain (FIG. 2l). […]

## TVIGTLLEI (RHOBTB3-based peptide) [SEQ ID NO:61, RHOBTB3-derived peptide presented by MDA-MB-231]
[1]
  immunogenicity: showed immunogenicity

## GLLETHPALLL (SRSF3-based peptide) [SEQ ID NO:62, SRSF3-derived peptide presented by MDA-MB-231]
[1]
  immunogenicity: showed immunogenicity

## Cn1cc(C[C@H](N)C(=O)O)c2ccccc21 [IDOi, 1-Methyl-L-tryptophan]
12T cells
  accumulation of RPFs at the W-Bumps region / bumps: rescued; also recorded: completely abolished
  global redistribution of RPFs towards the translation initiation sites and enrichment of tryptophan codon signal at A-site: negated
MD55A3 melanoma cells
  IFNγ-induced frameshifting: prevented

## CC(C)C[C@@H](C=O)NC(=O)[C@H](CC(C)C)NC(=O)[C@H](CC(C)C)NC(=O)OCc1ccccc1 [MG132] (Cbz-Leu-Leu-Leu-aldehyde)
MD55A3 cells
  restoration of reduced levels of high-tryptophan containing proteins: did not restore

## TLVEDLLEV (RFX1-based peptide) [SEQ ID NO:58, RFX1-derived peptide presented by MDA-MB-231]
[1]
  immunogenicity: showed immunogenicity
